According to patent US8591902B2, “Antibody binding to lysophosphatidylglucoside, and composition comprising the same” (Riken, priority 2010, dated 2013):

Assays:
[1] = tested on: growth cone of an NGF-dependent neuron (TrkA neuron); experiment: In vitro growth cone turning assay, NGF-supplemented medium; assay type: cell-based, chicken; settings: for change in axon extension direction in response to concentration gradient: NGF-supplemented medium, TrkA neuron, lysophospholipid 10 μM in pipette, 45 minutes
Excerpt: (§1) The method described in T. Tojima et al., Nat Neurosci 10, 58-66 (January, 2007) was somewhat modified and employed to perform a primary culture of isolated DRG sensory nerves. Specifically, a chicken embryo at HH St. 29 was separated from the eggshell and decapitated. The body was transferred to ice-cooled PBS. Organs were removed from the obtained body with forceps, and the spine was exposed by ventral laminectomy. DRGs were isolated from the thoracic or lumbosacral spinal cord, broken into pieces fine watchmaker's forceps, and transferred into an L15 medium on ice. The DRG obtained by the dissection was treated with trypsin at 37° C. for 20 minutes, followed by centrifugation at 100 g for 1 minute. A minimum amount of an L15 medium was added to the pellets thus obtained, and the cells were manually suspended (repeated manual trituration). The cell suspension was again centrifuged at 100 g for 1 minute, and the supernatant was removed. Subsequently, the pellets were resuspended in a Leibovitz's L15 medium supplemented with N-2 (manufactured by Invitrogen Corp.), 750 μg/ml of BSA (manufactured by GIBCO), and 25 ng/ml of NGF or 50 ng/ml of NT-3 (manufactured by Sigma-Aldrich Corporation). The cells were seeded on glass dishes precoated with mouse-derived laminin (manufactured by Invitrogen Corp.) at […] such that the cell count would be 10,000 per dish. The dishes were placed in a culturing environment of 5% CO2 at 37° C. for approximately 2 hours before used in a growth cone turning assay.
The in vitro growth cone turning assay was conducted according to the methods described in M. Lohof, M. Quillan, Y. Dan, M. M. Poo, J Neurosci 12, 1253-61 (April, 1992), J. Q. Zheng, M. M. Poo, J. A. Connor, Perspect Dev Neurobiol 4, 205-13 (1996), and Y. Xiang et al., Nat Neurosci 5, 843-8 (September, 2002), which were somewhat modified. Specifically, lysophosphatidylcholine (manufactured by Sigma-Aldrich Corporation) or Lyso-PtdGlc prepared by a method described later was diluted with a vehicle (1% (v/v) methanol/PBS) such that the concentration would be 10 μM. […]

[2] = tested on: growth cone of an NT-3-dependent neuron (TrkC neuron); experiment: In vitro growth cone turning assay, NT-3-supplemented medium; assay type: cell-based, chicken; settings: lysophospholipid 10 μM in pipette, 45 minutes
Excerpt: as §1, with “The dishes were placed in a culturing environment of 5% CO2 at 37° C. for approximately 2 hours before used in a growth cone turning assay.” left out

Row | Molecule | chemorepellent effect on growth cone turning ([1]; in the presence of 50 μg/ml anti-Lyso-PtdGlc antibody) | change in axon extension direction in response to concentration gradient [2] | change in axon extension direction in response to concentration gradient [1]
1 | Lysophosphatidic acid [LPA] | strong chemorepellent effect | – | –
2 | Lysophosphatidylcholine [LPC] | – | no significant influence | no significant influence
3 | CCCCCCCCCCCCCCCCCC(=O)OCC(O)COP(=O)(O)O[C@@H]1OC(CO)[C@@H](O)C(O)C1O (some centres unmarked) [Lyso-PtdGlc, lysophosphatidylglucoside] | – | no significant change | changed its extension direction
